Data set [1] has as its system MDA-MB-231. The data set is described as follows: Antiproliferative activity against human MDA-MB-231 cells highly expressing AXL after 72 hrs by MTT assay. Conditions: MDA-MB-231, 72 h.
In a further data set the test system is 4T1. The data set is described as follows: Antiproliferative activity against mouse 4T1 cells highly expressing AXL after 72 hrs by MTT assay. The note with it: 4T1, 72 h.
Data set [2] in a line: Cytotoxicity against human MCF-10A cells after 72 hrs by MTT assay. The format is toxicity, cell-based.
Data set [3] can be described thus: Cytotoxicity against human GES1 cells after 72 hrs by MTT assay. Format: toxicity, cell-based. (In general: Tetrazolium dyes change colour on reduction, which living cells bring about.)
The target in data set [4] is T1, Tyrosine-protein kinase receptor UFO (Homo sapiens, UniProt P30530).
T1 sequence (P30530 whole entry): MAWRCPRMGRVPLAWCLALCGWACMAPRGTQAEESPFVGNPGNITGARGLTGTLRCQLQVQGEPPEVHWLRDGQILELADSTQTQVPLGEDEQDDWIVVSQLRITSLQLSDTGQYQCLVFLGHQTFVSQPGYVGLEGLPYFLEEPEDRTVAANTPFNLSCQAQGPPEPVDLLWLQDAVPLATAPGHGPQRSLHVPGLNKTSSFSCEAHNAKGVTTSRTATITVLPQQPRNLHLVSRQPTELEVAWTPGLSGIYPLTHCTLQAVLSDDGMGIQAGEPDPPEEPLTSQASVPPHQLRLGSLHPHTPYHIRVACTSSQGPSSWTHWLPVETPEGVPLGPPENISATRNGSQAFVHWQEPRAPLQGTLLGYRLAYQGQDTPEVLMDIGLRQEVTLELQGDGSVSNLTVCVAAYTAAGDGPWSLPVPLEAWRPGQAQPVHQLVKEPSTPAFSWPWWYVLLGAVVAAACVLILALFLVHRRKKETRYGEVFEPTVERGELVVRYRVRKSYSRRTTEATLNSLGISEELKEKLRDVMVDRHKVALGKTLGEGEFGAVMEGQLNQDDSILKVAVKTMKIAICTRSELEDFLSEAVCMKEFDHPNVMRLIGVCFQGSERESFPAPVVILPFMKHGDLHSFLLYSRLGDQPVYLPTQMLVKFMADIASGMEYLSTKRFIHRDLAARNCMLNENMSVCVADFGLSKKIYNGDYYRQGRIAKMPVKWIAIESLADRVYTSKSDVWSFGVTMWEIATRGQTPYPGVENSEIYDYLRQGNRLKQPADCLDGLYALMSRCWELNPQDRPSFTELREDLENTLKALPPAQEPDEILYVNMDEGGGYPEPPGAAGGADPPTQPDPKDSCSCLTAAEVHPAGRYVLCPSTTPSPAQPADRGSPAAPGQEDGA
The data set is described as follows: Inhibition of AXL (unknown origin) measured by FRET assay.

Data set [5] relates to MDA-MB-231. The data set is described as follows: Antitumor activity against human MDA-MB-231 cells xenografted in female BALB/c nude mouse assessed as tumor growth inhibition at 25 mg/kg, ip. Format: functional, organism-based.
Data set [6] is described as follows: Toxicity in female BALB/c nude mouse xenografted with human MDA-MB-231 cells assessed as change in body wieght at 25 mg/kg, ip. The note with it: in vivo. Format: organism-based.
A short description of data set [7]: Systemic toxicity in female BALB/c nude mouse xenografted with human MDA-MB-231 cells assessed as necrosis of heart tissue at 25 mg/kg, ip. Format: organism-based. Conditions: in vivo. Background: In xenograft studies the graft and the host belong to different species.
A short description of data set [8]: Systemic toxicity in female BALB/c nude mouse xenografted with human MDA-MB-231 cells assessed as necrosis of liver tissue at 25 mg/kg, ip. The note with it: in vivo. The format is organism-based.
A short description of data set [9]: Systemic toxicity in female BALB/c nude mouse xenografted with human MDA-MB-231 cells assessed as necrosis of spleen tissue at 25 mg/kg, ip. The format is organism-based. Conditions: in vivo.
Data set [10] is described as follows: Systemic toxicity in female BALB/c nude mouse xenografted with human MDA-MB-231 cells assessed as necrosis of lung tissue at 25 mg/kg, ip. Format: organism-based. The note with it: in vivo.
The nature of data set [11]: Systemic toxicity in female BALB/c nude mouse xenografted with human MDA-MB-231 cells assessed as necrosis of kidney tissue at 25 mg/kg, ip. The format is organism-based. The note with it: in vivo.
Data set [12] in a line: Systemic toxicity in female BALB/c nude mouse xenografted with human MDA-MB-231 cells assessed as inflammatory cell infiltration in heart at 25 mg/kg, ip. Format: organism-based. Conditions: in vivo.
The nature of data set [13]: Systemic toxicity in female BALB/c nude mouse xenografted with human MDA-MB-231 cells assessed as inflammatory cell infiltration in liver at 25 mg/kg, ip. The format is organism-based. Conditions: in vivo.
Data set [14] in a line: Systemic toxicity in female BALB/c nude mouse xenografted with human MDA-MB-231 cells assessed as inflammatory cell infiltration in spleen at 25 mg/kg, ip. Conditions: in vivo. Format: organism-based.
Data set [15] is described as follows: Systemic toxicity in female BALB/c nude mouse xenografted with human MDA-MB-231 cells assessed as inflammatory cell infiltration in lung at 25 mg/kg, ip. The format is organism-based. The note with it: in vivo.
The nature of data set [16]: Systemic toxicity in female BALB/c nude mouse xenografted with human MDA-MB-231 cells assessed as inflammatory cell infiltration in kidney at 25 mg/kg, ip. Format: organism-based. Conditions: in vivo.

Calls of active or inactive are those of the source. The calls are words filed in the database; no cut-off is given here. A value given as a limit tells only on which side of the number the result lay.

What is called IC50 is the concentration that gives 50% inhibition. On to `Nc1nc(NCCNC(=O)CCCCCNc2cccc3c2CN(C2CCC(=O)NC2=O)C3=O)nn1-c1cc2c(nn1)-c1ccccc1CCC2` (stereo not drawn), for which the IC50 with MDA-MB-231 [1] was above 60 µM; with 4T1 it was 37.5 µM. Further, the 50% inhibitory concentration (IC50) at 72 h in data set [2] and in data set [3] was above 60 µM in each case.

Consider `Nc1nc(NCCNC(=O)CCCCCNc2cccc3c2CN(C2CCC(=O)NC2=O)C3=O)nn1-c1ccc(-c2ccccc2)nn1` (stereo not drawn), for which the IC50 with MDA-MB-231 [1] is 31.7 µM; in the data set with 4T1, 27.9 µM. Besides, the IC50 at 72 h in [2] and in data set [3] was above 60 µM throughout.

As for `Nc1nc(Nc2ccc(CNC(=O)CCCCCCNc3cccc4c3CN(C3CCC(=O)NC3=O)C4=O)cc2)nn1-c1ccc(-c2ccccc2)nn1` (stereo not drawn), the 50% inhibitory concentration (IC50) in the data set with MDA-MB-231 [1] was 28.5 µM; in the data set on 4T1, 24.6 µM. In addition, the IC50 at 72 h in data set [2] and in data set [3] was above 60 µM throughout.

Regarding `Nc1nc(Nc2ccc(CNC(=O)CCCNc3cccc4c3CN(C3CCC(=O)NC3=O)C4=O)cc2)nn1-c1ccc(-c2ccccc2)nn1` (stereo not drawn), the concentration for half-maximal inhibition (IC50) in the data set with MDA-MB-231 [1] was 48 µM; in the data set with 4T1, above 60 µM. Moreover, the IC50 at 72 h in data set [2] and in data set [3] was above 60 µM in each case.

For the molecule `Nc1nc(NCCNC(=O)CCCCNc2cccc3c2CN(C2CCC(=O)NC2=O)C3=O)nn1-c1cc2c(nn1)-c1ccccc1CCC2` (stereo not drawn), the half-maximal inhibitory concentration (IC50) was determined as 36.2 µM in the data set on MDA-MB-231 [1] and 7.05 µM in the data set with 4T1. For the same molecule, the half-maximal inhibitory concentration (IC50) at 72 h in data set [2] and in data set [3] was above 60 µM each time.

Regarding `Nc1nc(Nc2ccc(CNC(=O)CCCCNc3cccc4c3CN(C3CCC(=O)NC3=O)C4=O)cc2)nn1-c1ccc(-c2ccccc2)nn1` (stereo not drawn), the values for the 50% inhibitory concentration (IC50) in the data set on MDA-MB-231 [1] and in the data set on 4T1 were 35.7 µM and 54.2 µM, respectively. Besides, the half-maximal inhibitory concentration (IC50) at 72 h in data set [2] and in data set [3] was above 60 µM in each case.

As to `Nc1nc(Nc2ccc(CNC(=O)CCCCCNc3cccc4c3CN(C3CCC(=O)NC3=O)C4=O)cc2)nn1-c1cc2c(nn1)-c1ccccc1CCC2` (stereo not drawn), the IC50 in the data set on MDA-MB-231 [1] was 32.8 µM; with 4T1, 29.6 µM. For the same molecule, the IC50 at 72 h in data set [2] and in [3] was above 60 µM in each case.

For the molecule `Nc1nc(NCCNC(=O)CCCCCCCNc2cccc3c2CN(C2CCC(=O)NC2=O)C3=O)nn1-c1cc2c(nn1)-c1ccccc1CCC2` (stereo not drawn), the IC50 in the data set on MDA-MB-231 [1] was above 60 µM; with 4T1, 27.2 µM. For the same molecule, the half-maximal inhibitory concentration (IC50) at 72 h in [2] and in data set [3] was above 60 µM in each case.

As for `Nc1nc(NCCNC(=O)CCCNc2cccc3c2CN(C2CCC(=O)NC2=O)C3=O)nn1-c1ccc(-c2ccccc2)nn1` (stereo not drawn), the IC50 (in data set [4]; with MDA-MB-231 [1]; with 4T1) was above 60 µM each time. The IC50 at 72 h in [2] and in data set [3] was above 60 µM in each case.

Consider `Nc1nc(Nc2ccc(CNC(=O)CCCCCCNc3cccc4c3CN(C3CCC(=O)NC3=O)C4=O)cc2)nn1-c1cc2c(nn1)-c1ccccc1CCC2` (stereo not drawn), for which the IC50 is 29.5 µM with MDA-MB-231 [1] and 2230 µM with 4T1. The IC50 at 72 h in data set [2] and in data set [3] was above 60 µM in each case.

Take `Nc1nc(NCCNC(=O)CCCCCCNc2cccc3c2CN(C2CCC(=O)NC2=O)C3=O)nn1-c1ccc(-c2ccccc2)nn1` (stereo not drawn): the concentration for half-maximal inhibition (IC50) (in data set [4]; with MDA-MB-231 [1]; with 4T1) was above 60 µM each time. Also, the half-maximal inhibitory concentration (IC50) at 72 h in data set [2] and in data set [3] was above 60 µM each time.

Regarding `Nc1nc(NCCNC(=O)CCCNc2cccc3c2CN(C2CCC(=O)NC2=O)C3=O)nn1-c1cc2c(nn1)-c1ccccc1CCC2` (stereo not drawn), the IC50 (in [4]; in the data set with MDA-MB-231 [1]) was above 60 µM each time. Besides, the IC50 at 72 h in [2] and in data set [3] was above 60 µM in each case.

As to `Nc1nc(Nc2ccc(CNC(=O)CCCCCCCNc3cccc4c3CN(C3CCC(=O)NC3=O)C4=O)cc2)nn1-c1cc2c(nn1)-c1ccccc1CCC2` (stereo not drawn), the IC50 came out at 27.6 µM in the data set on MDA-MB-231 [1] and 21.1 µM in the data set on 4T1. In addition, the half-maximal inhibitory concentration (IC50) at 72 h in data set [2] and in [3] was above 60 µM in each case.

Consider `Nc1nc(Nc2ccc(CNC(=O)CCCCNc3cccc4c3CN(C3CCC(=O)NC3=O)C4=O)cc2)nn1-c1cc2c(nn1)-c1ccccc1CCC2` (stereo not drawn), for which the concentration for half-maximal inhibition (IC50) with MDA-MB-231 [1] came to 39.1 µM; in the data set with 4T1, 41.3 µM. Also, the half-inhibitory concentration (IC50) at 72 h in data set [2] and in data set [3] was above 60 µM in each case.

For `Nc1nc(NCCNC(=O)CCCCNc2cccc3c2CN(C2CCC(=O)NC2=O)C3=O)nn1-c1ccc(-c2ccccc2)nn1` (stereo not drawn), the IC50 with MDA-MB-231 [1] was 52.2 µM; in the data set on 4T1, above 60 µM. Further, the IC50 at 72 h in data set [2] and in [3] was above 60 µM in each case.

`Nc1nc(Nc2ccc(CNC(=O)CCCNc3cccc4c3CN(C3CCC(=O)NC3=O)C4=O)cc2)nn1-c1cc2c(nn1)-c1ccccc1CCC2` (stereo not drawn): the IC50 in the data set on MDA-MB-231 [1] was 41.3 µM; in the data set on 4T1, 34.6 µM. For the same molecule, the half-inhibitory concentration (IC50) at 72 h in [2] and in data set [3] was above 60 µM in each case.

Turning to `Nc1nc(Nc2ccc3c(c2)CC[C@@H](N2CCCC2)CC3)nn1-c1cc2c(nn1)-c1ccccc1CCC2` [BEMCENTINIB], the values for the half-maximal inhibitory concentration (IC50) with MDA-MB-231 [1] and in the data set on 4T1 were 2.84 µM and 0.94 µM, respectively. Also, the IC50 at 72 h in [2] and in [3] was above 60 µM throughout. Also, in the data set on MDA-MB-231 [5], the TGI entry is “Active”. The Activity result in data set [6], in data set [7], in data set [8], in data set [9], in [10] and in data set [11] was “Non-Toxic” each time. For the same molecule, the Activity entry in data set [12], in data set [13], in data set [14], in data set [15] and in data set [16] was “Non-Toxic” throughout.

As for `Nc1nc(NCCNC(=O)CCCCCCNc2cccc3c2CN(C2CCC(=O)NC2=O)C3=O)nn1-c1cc2c(nn1)-c1ccccc1CCC2` (stereo not drawn), the IC50 at 72 h in [2] and in [3] was above 60 µM each time.

Consider `Nc1nc(NCCNC(=O)CCCCCCCNc2cccc3c2CN(C2CCC(=O)NC2=O)C3=O)nn1-c1ccc(-c2ccccc2)nn1` (stereo not drawn), for which the IC50 in the data set with MDA-MB-231 [1] stood at 34.7 µM; with 4T1, 19.5 µM. Further, the IC50 at 72 h in data set [2] and in data set [3] was above 60 µM in each case.

The record behind these values is ChEMBL document CHEMBL5154798, “Structure-based discovery of receptor tyrosine kinase AXL degraders with excellent anti-tumor activity by selectively degrading AXL and inducing methuosis” (Eur J Med Chem, 2022).
